Measurements: ChEMBL document CHEMBL5154766, “Synthesis, bioevaluation and molecular dynamics of pyrrolo-pyridine benzamide derivatives as potential antitumor agents in vitro and in vivo” (Eur J Med Chem, 2022)
Calls of active or inactive are those of the source. The calls are words filed in the database; no cut-off is given here.

What was measured:
[1] = test system: MCF7; test: Antiproliferative activity against human MCF7 cells expressing c-Met after 48 hrs by MTT assay; type: functional, cell-based; details: MCF7, 48 h
[2] = test system: A549; test: Antiproliferative activity against human A549 cells expressing c-Met after 48 hrs by MTT assay; type: functional, cell-based; details: A549, 48 h
[3] = test system: HeLa; test: Antiproliferative activity against human HeLa cells expressing c-Met after 48 hrs by MTT assay; type: functional, cell-based
[4] = test system: A549; test: Induction of cell cycle arrest in human A549 cells assessed as accumulation at S phase at 5 uM measured by flow cytometry (reference value: 34.34%); type: functional
[5] = test system: A549; test: Induction of apoptosis in human A549 cells assessed as late apoptotic cells at 5 uM measured after 24 hrs by PI/Annexin V staining based flow cytometry assay (reference value: 4.49%); type: functional
[6] = Toxicity in BALB/c nude mouse xenografted with human A549 cells assessed as effect on kidney at 20 mg/kg, ip administered every two days for 18 days by H and E staining method; type: organism-based; details: in vivo, 432 h, time 18 day
[7] = test system: A549; test: Antitumor activity against human A549 cells xenografted in BALB/c nude mouse assessed as reduction in Ki67 expression at 20 mg/kg, ip administered every two days for 18 days by immunohistochemistry; type: functional, organism-based; details: time 18.0 day
[8] = test system: A549; test: Induction of cell cycle arrest in human A549 cells assessed as accumulation at G0/G1 phase at 5 uM measured by flow cytometry (reference value: 57.68%); type: functional
[9] = Toxicity in BALB/c nude mouse xenografted with human A549 cells assessed as effect on heart at 20 mg/kg, ip administered every two days for 18 days by H and E staining method; type: organism-based; details: in vivo, 432 h, time 18 day
[10] = test system: A549; test: Induction of cell cycle arrest in human A549 cells assessed as accumulation at G2/M phase at 5 uM measured by flow cytometry (reference value: 7.98%); type: functional
[11] = test system: A549; test: Induction of apoptosis in human A549 cells assessed as early apoptotic cells at 5 uM measured after 24 hrs by PI/Annexin V staining based flow cytometry assay (reference value: 2.5%); type: functional
[12] = test system: A549; test: Antitumor activity against human A549 cells xenografted in BALB/c nude mouse assessed as tumor growth inhibition at 20 mg/kg, ip administered every two days for 18 days; type: functional; details: A549, 432 h, time 18 day, read-out: TGI
[13] = Toxicity in BALB/c nude mouse xenografted with human A549 cells assessed as effect on body weight at 20 mg/kg, ip administered every two days for 18 days; type: organism-based; details: in vivo, 432 h, time 18 day
[14] = Toxicity in BALB/c nude mouse xenografted with human A549 cells assessed as effect on liver at 20 mg/kg, ip administered every two days for 18 days by H and E staining method; type: organism-based; details: in vivo, 432 h, time 18 day
[15] = test system: A549; test: Induction of cell cycle arrest in human A549 cells assessed as accumulation at S phase at 10 uM measured by flow cytometry (reference value: 34.34%); type: functional
[16] = test system: A549; test: Induction of apoptosis in human A549 cells assessed as increase in chromatin contraction at 1 to 5 uM measured after 12 hrs by Acridine orange staining method; type: functional, cell-based; details: dose 1-5 µM
[17] = test system: A549; test: Downregulation of c-Met expression in human A549 cells at 5 to 10 uM measured by fluorescence quantitative PCR analysis; type: functional, cell-based; details: dose 5-10 µM
[18] = test system: A549; test: Induction of cell cycle arrest in human A549 cells assessed as accumulation at G2/M phase at 10 uM measured by flow cytometry (reference value: 7.98%); type: functional
[19] = test system: A549; test: Induction of apoptosis in human A549 cells assessed as late apoptotic cells at 2.5 uM measured after 24 hrs by PI/Annexin V staining based flow cytometry assay (reference value: 4.49%); type: functional
[20] = test system: A549; test: Induction of cell cycle arrest in human A549 cells assessed as accumulation at G0/G1 phase at 10 uM measured by flow cytometry (reference value: 57.68%); type: functional
[21] = test system: A549; test: Induction of cell cycle arrest in human A549 cells assessed as accumulation at G2/M phase at 2.5 uM measured by flow cytometry (reference value: 7.98%); type: functional
[22] = test system: A549; test: Induction of apoptosis in human A549 cells assessed as early apoptotic cells at 2.5 uM measured after 24 hrs by PI/Annexin V staining based flow cytometry assay (reference value: 2.5%); type: functional
[23] = test system: A549; test: Induction of cell cycle arrest in human A549 cells assessed as accumulation at S phase at 2.5 uM measured by flow cytometry (reference value: 34.34%); type: functional
[24] = test system: A549; test: Induction of apoptosis in human A549 cells assessed as cytoplasmic shrinkage at 1 to 5 uM measured after 12 hrs by Acridine orange staining method; type: functional, cell-based; details: dose 1-5 µM
[25] = test system: A549; test: Induction of cell cycle arrest in human A549 cells assessed as accumulation at G0/G1 phase at 2.5 uM measured by flow cytometry (reference value: 57.68%); type: functional
[26] = test system: A549; test: Induction of apoptosis in human A549 cells assessed as late apoptotic cells at 10 uM measured after 24 hrs by PI/Annexin V staining based flow cytometry assay (reference value: 4.49%); type: functional
[27] = test system: A549; test: Induction of apoptosis in human A549 cells assessed as apoptotic bodies formation at 1 to 5 uM measured after 12 hrs by Acridine orange staining method; type: functional, cell-based; details: dose 1-5 µM
[28] = test system: A549; test: Induction of apoptosis in human A549 cells assessed as membrane swelling at 1 to 5 uM measured after 12 hrs by Acridine orange staining method; type: functional, cell-based; details: dose 1-5 µM
[29] = test system: A549; test: Induction of apoptosis in human A549 cells assessed as cell fragment formation at 1 to 5 uM measured after 12 hrs by Acridine orange staining method; type: functional, cell-based; details: dose 1-5 µM
[30] = test system: A549; test: Induction of apoptosis in human A549 cells assessed as early apoptotic cells at 10 uM measured after 24 hrs by PI/Annexin V staining based flow cytometry assay (reference value: 2.5%); type: functional

Cn1ccc2c(Oc3ccc(NC(=O)c4cn(-c5ccc(F)c(Cl)c5)c5ncccc5c4=O)cc3)ccnc21
IC50 [1]: 48.6 µM | IC50 [2]: 15.1 µM

O=C(Nc1ccc(Oc2ccnc3[nH]ccc23)c(F)c1)c1cn(-c2ccc(Cl)cc2)c2ncccc2c1=O
IC50 [2]: 5.29 µM

Cn1ccc2c(Oc3ccc(NC(=O)c4cn(-c5ccccc5)c5ncccc5c4=O)cc3)ccnc21
IC50 [1]: 13.1 µM | IC50 [3]: 77 µM | IC50 [2]: 22.3 µM

Cn1ccc2c(Oc3ccc(NC(=O)c4cn(-c5ccc(Cl)cc5)c5ncccc5c4=O)cc3)ccnc21
IC50 [3]: 63 µM | IC50 [2]: 15.3 µM

COc1ccc(-n2cc(C(=O)Nc3ccc(Oc4ccnc5[nH]ccc45)cc3)c(=O)c3cccnc32)cc1
IC50 [1]: 47.2 µM | IC50 [3]: 95.4 µM | IC50 [2]: 26 µM

COc1ccc(-n2cc(C(=O)Nc3ccc(Oc4ccnc5[nH]ccc45)c(F)c3)c(=O)c3cccnc32)cc1
IC50 [1]: 1.18 µM | IC50 [3]: 19.9 µM | IC50 [2]: 7.23 µM

O=C(Nc1ccc(Oc2ccnc3[nH]ccc23)cc1)c1cn(-c2ccc(Br)cc2F)c2ncccc2c1=O
IC50 [2]: 22.7 µM

O=C(Nc1ccc(Oc2ccnc3[nH]ccc23)cc1)c1cn(-c2ccccc2)c2ncccc2c1=O
IC50 [1]: 46.7 µM | IC50 [3]: 80 µM | IC50 [2]: 18.2 µM

COc1cc2nccc(Oc3ccc(NC(=O)C4(C(=O)Nc5ccc(F)cc5)CC4)cc3)c2cc1OC [CABOZANTINIB]
Activity [4]: 15.31% | IC50 [1]: 30.9 µM | IC50 [3]: 79.1 µM | Activity [5]: 6.89% | Activity [6]: Non-Toxic | Activity [7]: Active | Activity [8]: 69.22% | Activity [9]: Non-Toxic | Activity [10]: 15.48% | Activity [11]: 2.32% | IC50 [2]: 0.33 µM | inhibition in vivo at 20 mg/kg [12]: 47.9% | Activity [13]: Non-Toxic | Activity [14]: Non-Toxic

Cn1ccc2c(Oc3ccc(NC(=O)c4cn(-c5ccc(F)cc5)c5ncccc5c4=O)cc3)ccnc21
IC50 [3]: 76.6 µM | IC50 [2]: 16.8 µM

O=C(Nc1ccc(Oc2ccnc3[nH]ccc23)c(F)c1)c1cn(-c2ccc(F)c(Cl)c2)c2ncccc2c1=O
IC50 [1]: 12 µM | IC50 [3]: 53.1 µM | IC50 [2]: 9.71 µM

O=C(Nc1ccc(Oc2ccnc3[nH]ccc23)cc1)c1cn(-c2ccc(F)c(Cl)c2)c2ncccc2c1=O
IC50 [1]: 2.01 µM | IC50 [3]: 14.2 µM | IC50 [2]: 12.4 µM

O=C(Nc1ccc(Oc2ccnc3[nH]ccc23)c(F)c1)c1cn(-c2ccccc2)c2ncccc2c1=O
IC50 [1]: 13 µM | IC50 [3]: 29.3 µM | IC50 [2]: 6.51 µM

O=C(Nc1ccc(Oc2ccnc3[nH]ccc23)cc1)c1cn(-c2ccc(Br)cc2)c2ncccc2c1=O
IC50 [1]: 30.8 µM | IC50 [3]: 49.3 µM | IC50 [2]: 8.39 µM

Cn1ccc2c(Oc3ccc(NC(=O)c4cn(-c5ccc(Br)cc5)c5ncccc5c4=O)cc3F)ccnc21
IC50 [1]: 5.49 µM | IC50 [2]: 10.2 µM

O=C(Nc1ccc(Oc2ccnc3[nH]ccc23)c(F)c1)c1cn(-c2ccc(Br)cc2F)c2ncccc2c1=O
IC50 [1]: 55.6 µM | IC50 [2]: 20.1 µM

Cn1ccc2c(Oc3ccc(NC(=O)c4cn(-c5ccc(Br)cc5)c5ncccc5c4=O)cc3)ccnc21
IC50 [1]: 29.1 µM | IC50 [3]: 50.2 µM | IC50 [2]: 10.8 µM

Cn1ccc2c(Oc3ccc(NC(=O)c4cn(-c5ccc(Br)cc5F)c5ncccc5c4=O)cc3F)ccnc21
IC50 [3]: 61.2 µM | IC50 [2]: 29.9 µM

O=C(Nc1ccc(Oc2ccnc3[nH]ccc23)c(F)c1)c1cn(-c2ccc(C(F)(F)F)cc2Cl)c2ncccc2c1=O
IC50 [1]: 13 µM | IC50 [3]: 27.8 µM | IC50 [2]: 9.15 µM

O=C(Nc1ccc(Oc2ccnc3[nH]ccc23)c(F)c1)c1cn(-c2ccc(F)cc2)c2ncccc2c1=O
IC50 [1]: 7.16 µM | IC50 [3]: 14.9 µM | IC50 [2]: 6.42 µM

Cn1ccc2c(Oc3ccc(NC(=O)c4cn(-c5ccc(Br)cc5F)c5ncccc5c4=O)cc3)ccnc21
IC50 [2]: 28.7 µM

COc1ccc(-n2cc(C(=O)Nc3ccc(Oc4ccnc5c4ccn5C)cc3)c(=O)c3cccnc32)cc1
IC50 [1]: 44.9 µM | IC50 [2]: 30.6 µM

Cn1ccc2c(Oc3ccc(NC(=O)c4cn(-c5ccc(C(F)(F)F)cc5Cl)c5ncccc5c4=O)cc3)ccnc21
IC50 [3]: 80.3 µM

O=C(Nc1ccc(Oc2ccnc3[nH]ccc23)cc1)c1cn(-c2ccc(C(F)(F)F)cc2Cl)c2ncccc2c1=O
IC50 [3]: 50.3 µM

O=C(Nc1ccc(Oc2ccnc3[nH]ccc23)c(F)c1)c1cn(-c2ccc(Br)cc2)c2ncccc2c1=O
Activity [15]: 15.31% | Activity [16]: Active | Activity [17]: Active | Activity [18]: 15.48% | Activity [4]: 26.84% | IC50 [1]: 0.11 µM | Activity [19]: 5.58% | Activity [20]: 69.22% | IC50 [3]: 10.9 µM | Activity [21]: 10.19% | Activity [5]: 8.13% | Activity [6]: Non-Toxic | Activity [7]: Active | Activity [22]: 3.33% | Activity [23]: 31.09% | Activity [8]: 60.15% | Activity [9]: Non-Toxic | Activity [24]: Active | Activity [25]: 58.72% | Activity [10]: 13.01% | Activity [26]: 12.69% | Activity [27]: Active | Activity [11]: 2.2% | IC50 [2]: 1.06 µM | Activity [28]: Active | inhibition in vivo at 20 mg/kg [12]: 64.5% | Activity [13]: Non-Toxic | Activity [29]: Active | Activity [30]: 4% | Activity [14]: Non-Toxic

O=C(Nc1ccc(Oc2ccnc3[nH]ccc23)cc1)c1cn(-c2ccc(Cl)cc2)c2ncccc2c1=O
IC50 [3]: 53.3 µM

O=C(Nc1ccc(Oc2ccnc3[nH]ccc23)cc1)c1cn(-c2ccc(F)cc2)c2ncccc2c1=O
IC50 [3]: 86 µM | IC50 [2]: 9.62 µM

Cn1ccc2c(Oc3ccc(NC(=O)c4cn(-c5ccccc5)c5ncccc5c4=O)cc3F)ccnc21
IC50 [1]: 14.8 µM | IC50 [2]: 16.9 µM
